This note sets out measurements from PMC4389443 (Respiratory Research, 2015).

For series [1], the target named is T1, Recombinant retina specific amine oxidase (AOC2) (Homo sapiens, UniProt O75106).
T1 sequence (O75106 1-756): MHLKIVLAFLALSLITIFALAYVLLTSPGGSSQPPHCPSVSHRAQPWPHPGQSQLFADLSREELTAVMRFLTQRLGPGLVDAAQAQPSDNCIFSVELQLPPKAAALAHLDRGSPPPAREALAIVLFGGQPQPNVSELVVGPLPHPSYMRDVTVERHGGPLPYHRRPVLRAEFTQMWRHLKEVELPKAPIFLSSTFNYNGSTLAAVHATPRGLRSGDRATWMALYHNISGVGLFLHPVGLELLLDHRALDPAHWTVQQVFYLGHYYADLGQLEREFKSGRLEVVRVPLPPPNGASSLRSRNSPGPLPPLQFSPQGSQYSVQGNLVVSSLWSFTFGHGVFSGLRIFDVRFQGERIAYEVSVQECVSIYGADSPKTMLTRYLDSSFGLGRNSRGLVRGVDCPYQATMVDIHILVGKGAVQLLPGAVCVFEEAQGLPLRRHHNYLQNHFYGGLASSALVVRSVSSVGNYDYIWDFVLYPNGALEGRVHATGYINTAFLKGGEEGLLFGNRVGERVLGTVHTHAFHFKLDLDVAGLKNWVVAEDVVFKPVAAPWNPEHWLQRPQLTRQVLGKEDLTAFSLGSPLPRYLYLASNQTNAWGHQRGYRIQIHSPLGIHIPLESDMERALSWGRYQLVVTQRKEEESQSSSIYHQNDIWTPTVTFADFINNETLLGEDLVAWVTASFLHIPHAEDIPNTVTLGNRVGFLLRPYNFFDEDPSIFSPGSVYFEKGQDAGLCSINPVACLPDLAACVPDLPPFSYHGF
Put plainly: AOC2 enzyme activity assay. The class given is biochemical.

Series [2] is described as follows: Plasma stability. In kind it is in vitro ADME. Particulars: human plasma, 1 hour incubation.
Series [3] relates to BALB/c mice. Description: CXCL1/KC induced cremaster inflammation, intravital microscopy. The class given is in vivo, mouse. The conditions noted are these: 6 mg.kg^−1 oral, 1 hour prior to rCXCL1. On the procedure:
BALB/c mice were anesthetized and 500 ng of murine rCXCL1 in 0.2 ml of saline was administered locally by s.c. injection beneath the right scrotal skin using a 30-G needle, 2 hours before exteriorization. The left cremaster was then prepared for intravital microscopy, as previously described. Briefly, an incision was made in the scrotal skin to expose the left cremaster muscle, which was then carefully removed from the associated fascia. A lengthwise incision was made on the ventral surface of the cremaster muscle using a cautery. The testicle and the epididymis were separated from the underlying muscle and were moved into the abdominal cavity. The muscle was then spread out over an optically clear viewing pedestal and was secured along the edges with a 4–0 suture. […] A video camera (CDD; Sony) was used to project the images onto a monitor, and the images were recorded for playback analysis using a conventional DVD. […] The number of rolling and adherent leukocytes was determined offline during video playback analysis. […] The flux of rolling cells was measured as the number of rolling cells passing by a given point in the venule per minute. A leukocyte was considered to be adherent if it remained stationary for at least 30 s, and total leukocyte adhesion was quantified as the number of adherent cells within a 100 μm length of venule.

Series [4] can be described thus: Plasma stability. In kind it is in vitro ADME. Particulars: dog plasma, 1 hour incubation.
The next series deals with carbonic anhydrase II (Homo sapiens, UniProt P00918). Description: Carbonic anhydrase II activity. In kind it is biochemical.
The test system of series [5] is BALB/c mice. Put plainly: Klebsiella pneumoniae lung infection.
For series [6], the target named is T2, VAP-1/SSAO in gonadal fat tissue homogenate (Canis lupus familiaris, UniProt A0A8I3MYY3).
T2 sequence (A0A8I3MYY3 1-763): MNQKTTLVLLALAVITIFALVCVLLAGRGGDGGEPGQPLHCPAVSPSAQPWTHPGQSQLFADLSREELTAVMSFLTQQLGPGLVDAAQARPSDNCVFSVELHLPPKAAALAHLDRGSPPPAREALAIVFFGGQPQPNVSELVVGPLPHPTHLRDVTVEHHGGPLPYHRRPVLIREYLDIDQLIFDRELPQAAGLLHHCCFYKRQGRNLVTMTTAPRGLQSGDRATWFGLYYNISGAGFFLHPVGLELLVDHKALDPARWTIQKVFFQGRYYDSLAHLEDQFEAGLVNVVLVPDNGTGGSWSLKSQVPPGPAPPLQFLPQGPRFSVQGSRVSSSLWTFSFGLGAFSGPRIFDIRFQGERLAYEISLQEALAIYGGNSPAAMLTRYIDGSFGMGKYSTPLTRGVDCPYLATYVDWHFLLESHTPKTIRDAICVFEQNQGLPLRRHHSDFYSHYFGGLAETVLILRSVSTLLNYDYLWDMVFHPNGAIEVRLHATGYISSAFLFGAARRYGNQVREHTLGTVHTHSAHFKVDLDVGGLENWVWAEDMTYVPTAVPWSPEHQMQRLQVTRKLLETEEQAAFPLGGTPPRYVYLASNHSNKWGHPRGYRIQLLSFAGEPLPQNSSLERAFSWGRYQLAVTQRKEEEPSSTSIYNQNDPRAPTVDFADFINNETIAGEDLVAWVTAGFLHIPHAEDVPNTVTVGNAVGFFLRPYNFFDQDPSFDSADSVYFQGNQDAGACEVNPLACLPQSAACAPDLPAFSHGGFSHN
Description: SSAO activity, gonadal fat tissue homogenate. In kind it is biochemical. The conditions noted are these: dog.

A further series relates to Swiss mice. Put plainly: LPS airway inflammation, 24 hour time point. The class given is in vivo, mouse. Particulars: 24 hours after LPS. On the procedure:
Given the short half-life of PXS-4728, a second dose was administered to ensure that newly synthesized SSAO would also be blocked.

The mark [7] stands for this setting: 24 hours, PXS-4728A 6 mg.kg^−1, dexamethasone 10 mg.kg^−1, oral 1 hour prior to infection.
The mark [8] stands for this setting: 4 mg/kg pre-treatment, 6 mg/kg at 6 hours.

Some results are limits rather than exact numbers.

As usually defined, the IC50 is the point on the concentration scale where inhibition reaches its midpoint. For the compound `CC(C)(C)NC(=O)c1ccc(OC/C(=C/F)CN)cc1` [PXS-4728A], the IC50 in series [1] is 2760 nM. The “Plasma stability, remaining” value in the series “Plasma stability [2]” is more than 90%. Further, in the series with BALB/c mice [3], the “CXCL1/KC increased number of adhering leukocytes” value is “abolished” and the “CXCL1/KC increased number of rolling leukocytes” value is “abolished”. In “Plasma stability [4]”, the “Plasma stability, remaining” value was more than 90%. Further, at carbonic anhydrase II, the “Activity for carbonic anhydrase II” value is recorded as “removing all activity”. In the series on BALB/c mice [5] (setting [7]), the “Neutrophil migration into the airway spaces (BALF)” value was “significantly dampened” and the “Total leukocyte migration into the airway spaces (BALF)” value is “significantly dampened”. In the series with BALB/c mice [5] (24 hours, PXS-4728A 6 mg.kg^−1, dexamethasone 10 mg.kg^−1, vehicle 7.59), the “Log 10-CFU in the lung (bacterial load), average” value stood at 8.27 LOG 10-CFU. Besides, in the series on BALB/c mice [5] (treated 1 hour prior to infection and daily thereafter), the Survival result was “not compromised”. The compound further yielded an IC50 in series [6] of less than 10 nM. Besides, in the series with Swiss mice, the Circulating neutrophils result was “had no effect” and the “Total cells in blood” value is reported as “had no effect”. In addition, in the series on Swiss mice (setting [8]), the “Influx of neutrophils in BALF” value is given as “reduced” and the “Influx of total cells in BALF” value is recorded as “reduced”.
